From patent US12686690B2, “Macrocyclic urea orexin receptor agonists” (Merck Sharp & Dohme LLC, priority 2020, dated 2026)
pEC50: −log10 of the molar value.

Biological target: T1, hOX2R (Homo sapiens, UniProt O43614)
T1 construct: expressed in transfected cells; host or cells: CHO cells (G418 selection)
T1 sequence (O43614 1-444): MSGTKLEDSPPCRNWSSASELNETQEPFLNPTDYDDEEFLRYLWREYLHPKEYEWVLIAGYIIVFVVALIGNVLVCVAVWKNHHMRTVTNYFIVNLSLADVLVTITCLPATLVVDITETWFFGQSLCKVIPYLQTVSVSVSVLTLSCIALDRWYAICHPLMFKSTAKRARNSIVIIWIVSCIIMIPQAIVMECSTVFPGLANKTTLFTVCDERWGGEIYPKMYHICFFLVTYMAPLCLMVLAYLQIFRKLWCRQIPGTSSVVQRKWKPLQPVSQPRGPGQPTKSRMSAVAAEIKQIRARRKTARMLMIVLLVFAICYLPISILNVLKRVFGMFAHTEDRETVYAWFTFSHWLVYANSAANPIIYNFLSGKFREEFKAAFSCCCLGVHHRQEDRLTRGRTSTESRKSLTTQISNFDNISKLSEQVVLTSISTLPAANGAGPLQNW
Experiment: hOX2R IPone assay (orexin receptor agonism)
Assay type: cell-based
Conditions: IPone readout; for hOX2R_Ipone max %act: maximal activation; for pEC50: orexin receptor agonist, read-out: hOX2R_IPone EC50

| hOX2R_Ipone max %act | pEC50 | Compound |
| --- | --- | --- |
| 99.7% | 8.80 | CCN1C(=O)N[C@@H](CCC(F)(F)F)CCCCCOc2nc(cn3ccnc23)-c2cc(nnc2OC)[C@H]1C [Example 116, (12R,16R)-13-ethyl-8-methoxy-12-methyl-16-(3,3,3-trifluoropropyl)-12,13,16,17,18,19,20,21-octahydro-6,23-(azeno)-11,7-(metheno)imidazo[2,1-c][1,4,9,10,13,15]oxapentaazacyclohenicosin-14(15H)-one] |
| 100.4% | 8.47 | CCN1C(=O)N[C@@H](CCC(F)(F)F)CCCCCOc2nc(cn3c(C)cnc23)-c2cc(nc3ccoc23)C1C (single isomer, unassigned) [Example 76B] |
| 100.7% | 9.30 | CCN1C(=O)NC(CCC(F)(F)F)CCC(F)(F)CCOc2nc(cn3ccnc23)-c2cc(ncc2OC)[C@H]1C (single isomer, unassigned) [Example 121B] |
| 99.5% | 8.31 | CCC1CCCCCOc2nc(cn3ccnc23)-c2cc(ncc2OC)[C@@H](C)N(CC)C(=O)N1 (single isomer, unassigned) [Example 52B] |
| 90.75% | 6.39 | CCN1C(=O)N[C@@H](C)CCCC(F)(F)COc2nc(cn3ccnc23)-c2cc(ncc2OC)[C@H]1C [Example 221, (3R,7S,E)-4-ethyl-11,11-difluoro-25-methoxy-3,7-dimethyl-13-oxa-4,6-diaza-1(6,8)-imidazo[1,2-a]pyrazina-2(4,2)-pyridinacyclotridecaphan-5-one] |
| 100.5% | 8.54 | CCN1C(=O)N[C@@H](CCC(F)(F)F)CCCCCOc2cc(cn3ccnc23)-c2cc(ncn2)C1C (single isomer, unassigned) [Example 96B] |
| 100.5% | 7.20 | CCN1C(=O)NCCCCCCCOc2nc(cn3ccnc23)-c2cc(ncc2OC)[C@H]1C [Example 177, (R,E)-4-ethyl-25-methoxy-3-methyl-14-oxa-4,6-diaza-1(6,8)-imidazo[1,2-a]pyrazina-2(4,2)-pyridinacyclo-tetradecaphan-5-one] |
| 99.8% | 8.54 | CCN1C(=O)N[C@@H](CCC(F)(F)F)CCCCCOc2cc(cc3ccnn23)-c2nc(cnc2OC)C1C (single isomer, unassigned) [Example 80B] |
| 100.2% | 7.17 | CCN1C(=O)N[C@@H](CCC(F)(F)F)CCCCCOc2nc(cc3ccnn23)-c2cc(ncc2OC)C1C (single isomer, unassigned) [Example 88A] |
| 101.2% | 8.07 | CCN1C(=O)N[C@@H](CCC(F)(F)F)CCCCCOc2nc(nc3ccnn23)-c2cc(ncc2OC)[C@H]1C [Example 98, (11R,15R)-12-ethyl-7-methoxy-11-methyl-15-(3,3,3-trifluoropropyl)-11,12,15,16,17,18,19, 20-octahydro-5,22-(azeno)-10,6-(metheno)pyrazolo[1,5-c][1,3,5,10,13,15] oxapentaazacycloheni-cosin-13(14H)-one] |
| 99.5% | 7.76 | CCN1C(=O)N[C@@H](CCC(F)(F)F)CCCCCOc2nc(cn3ccnc23)-c2cc(nc3ccoc23)C1C (single isomer, unassigned) [Example 74A] |
| 100.7% | 8.85 | CCN1C(=O)N[C@@H](CCC(F)(F)F)CCCCCOc2nc(cn3ccnc23)-c2cc(ncc2OC)[C@H]1C [Example 111, (3R,7R,E)-4-ethyl-25-methoxy-3-methyl-7-(3,3,3-trifluoropropyl)-13-oxa-4,6-diaza-1(6,8)-imidazo[1,2-a]pyrazina-2(4,2)-pyridinacyclotridecaphan-5-one] |
| 102% | 6.85 | CCCC1CCCCCOc2nc(cn3ccnc23)-c2cc(ncc2OC)[C@@H](C)N(CC)C(=O)N1 (single isomer, unassigned) [Example 54A] |
| 99.9% | 6.27 | CCN1C(=O)N[C@@H](CCC(F)(F)F)CCCCOc2nc(cn3ncnc23)-c2cc(ncc2OC)C1C(F)(F)F (single isomer, unassigned) [Example 34A] |
| 102% | 9.22 | CCN1C(=O)N[C@@H](CCC(F)(F)F)CCCCCOc2nc(cn3ccnc23)-c2nc(ccc2OC)[C@H]1C [Example 97, (12R,16R)-13-ethyl-8-methoxy-12-methyl-16-(3,3,3-trifluoropropyl)-12,13,16,17,18,19,20, 21-octahydro-6,23:11,7-di(azeno) imidazo[2,1-c][1,4,13,15]oxatriaza-cyclohenicosin-14(15H)-one] |
| 99.62% | 8.96 | (9R,13R,E)-14-Cyclopropyl-12-ethyl-13-methyl-9-(3,3,3-trifluoropropyl)-3-oxa-10,12-diaza-1(5,2)-thiazola-2(6,8)-imidazo[1,2-a]pyrazinacyclotridecaphan-11-one [Example 209] |
| 99.78% | 7.60 | CCN1C(=O)N[C@@H](CCC(F)(F)F)CCCCCOc2nc(cn3ccnc23)C2=CN=C(S2)C1C (stereo partly drawn) [Example 95, (15R)-12-ethyl-11-methyl-15-(3,3,3-trifluoropropyl)-11,12,15,16,17,18,19, 20-octahydro-6,22-(azeno)-7,10-epithioimidazo[2,1-c][1,4,9,12,14]oxatet-raazacycloicosin-13(14H)-one] |
| 97.96% | 8.40 | CCN1C(=O)N[C@@H](CCC(F)(F)F)CCCCCOc2nc(nn3c(C)cnc23)-c2cc(ncc2OC)[C@H]1C [Example 124, (3R,7R,E)-4-ethyl-25-methoxy-17,3-dimethyl-7-(3,3,3-trifluoropropyl)-13-oxa-4,6-diaza-1(2,4)-imidazo[2,1-f][1,2,4]triazina-2(4,2)-pyridinacyclotridecaphan-5-one] |
| 101.8% | 9.54 | CCN1C(=O)NC(CCC(F)F)CCCCCOc2nc(cn3ccnc23)-c2cc(ncc2OC)[C@H]1C(F)(F)F (stereo partly drawn) [Example 208, (3S,E)-7-(3,3-difluoropropyl)-4-ethyl-25-methoxy-3-(trifluoromethyl)-13-oxa-4,6-diaza-1(6,8)-imidazo[1,2-a]pyrazina-2(4,2)-pyridinacyclotridecaphan-5-one] |
| 100.2% | 8.89 | CCN1C(=O)N[C@@H](CCC(F)(F)F)CCCCCOc2nc(cn3ccnc23)-c2ccnc(c2)[C@H]1C [Example 110, (3R,7R,E)-4-ethyl-3-methyl-7-(3,3,3-trifluoropropyl)-13-oxa-4,6-diaza-1(6,8)-imidazo[1,2-a]pyrazina-2(4,2)-pyridinacyclotridecaphan-5-one] |

| Compound | hOX2R_Ipone max %act | pEC50 |
| --- | --- | --- |
| CCN1C(=O)NCCN(C)CCC(C)Oc2nc(cn3ccnc23)-c2cccc(c2)[C@H]1C (mixture of isomers) [Example 16, (12R)-13-ethyl-12,18,21-trimethyl-12,13, 16,17,18,19,20,21-octahydro-6,23-(azeno)-11,7-(metheno) imidazo[2,1-c][1,4,13,15,18]oxa-tetraazacyclo-henicosin-14(15H)-one] | 77.7% | 5.41 |
| CCN1C(=O)NCCCOCCOc2nc(cn3ccnc23)-c2cc(ncc2OC)[C@H]1C [Example 7, (12R)-13-ethyl-8-methoxy-12-methyl-12,13,15,16,17,18,20,21-octahydro-14H-6,23-(azeno)-11,7-(metheno)imidazo[2,1-f][1,4,7,13,16,18]dioxatetra-azacyclohenicosin-14-one] | 100.6% | 8.34 |
